# Assay results taken from PMC11893521, “Examining Farnesyltransferase Interaction With Cell‐Permeable CaaX Peptides and the Role of the CaaX Motif in Biological Activity” (Journal of Peptide Science, 2025).
# Peptide text beside a SMILES is read from it.
# Tests used:
# [1] = system: HeLa cells; assay: Resazurin-based cytotoxicity assay; format: cell-based; conditions: serum-free medium, 24 h, triplicate (n = 3)
# Method: Cytotoxicity of the peptides to HeLa cells were investigated using a resazurin‐based cytotoxicity assay (Sigma Aldrich). For this, 14,000 HeLa cells were seeded in a 96‐well plate and grown in complete medium at 37°C to 80%–90% subconfluency. Cells were treated with different peptide dilutions in serum‐free medium at 37°C for 24 h. Untreated cells served as negative control and cells treated with 70% ethanol for 10 min as positive control. Cells were washed with PBS and subsequently incubated with a 10% resazurin solution in serum‐free medium for ~1 h. To determine the viability of the cells, the fluorescence was measured at 595 nm after excitation at 550 nm using a Tecan infinite M200 plate reader.
# [2] = target: T1, rFTase (Rattus norvegicus, UniProt Q02293+Q04631); assay: Mass spectrometry-based farnesylation assay (rFTase); format: biochemical; conditions: each peptide 18 h at 37°C with rFTase and FPP, LC-ESI-MS
# T1 construct: purchased Jena Bioscience PR-102
# Method: […] CaaX‐1 or scrambled control was incubated with 50‐nM recombinantly expressed hFTase or rFTase (Jena Bioscience, Cat#PR‐102) and 10‐μM farnesyl pyrophosphate (FPP) in reaction buffer (50‐mM Tris HCl pH 7.5, 5‐mM DTT, 5‐mM MgCl2, 10‐μM ZnCl2, and 0.2% n‐octyl‐beta‐D‐glucopyranoside) at 37°C for 18 h. Afterwards, the reaction mixture was desalted via C18 ZipTips (Merck Millipore). For this, ZipTips were washed with ACN and equilibrated in 0.1% FA in H2O. Then, the column was loaded with the reaction solution and subsequently washed with 0.1% FA in H2O and 5% MeOH in H2O each supplemented with 0.1% FA. Elution was performed using 50% ACN with 0.1% FA, and the eluted solution was analyzed by RP‐HPLC using a linear gradient of 10%–60% ACN in H2O with 0.1% FA or TFA using a flow rate of 0.6 or 1.0 mL/min, respectively, and by ESI‐MS analysis (LTQ‐XL, Thermo Scientific, Waltham, Massachusetts, USA).
Compound,cytotoxicity to HeLa cells at 100 μM [1],farnesylation by rFTase (CaaX-1 versus scrambled controls) [2]
CC[C@H](C)[C@H](NC(=O)[C@H](CS)NC(=O)[C@H](CCCCN)NC(=O)[C@H](CCCCN)NC(=O)[C@H](CC(N)=O)NC(=O)[C@H](CCCNC(=N)N)NC(=O)[C@H](Cc1ccccc1)NC(=O)[C@H](CCCCN)NC(=O)[C@H](CCCNC(=N)N)NC(=O)[C@H](CC(C)C)NC(=O)[C@H](CCCNC(=N)N)NC(=O)[C@H](CCCCN)NC(=O)[C@H](CCCNC(=N)N)NC(=O)[C@H](CC(C)C)NC(=O)CN)C(=O)N[C@@H](CCCCN)C(=O)N[C@H](C(=O)N[C@@H](CCSC)C(=O)N[C@H](C(=O)N[C@@H](CO)C(=O)O)[C@@H](C)O)C(C)C [CaaX‐1hscr] (H-GLRKRLRKFRNKKCIKVMTS-OH),slight toxicity,lack of catalytic conversion
CC[C@H](C)[C@H](N)C(=O)N[C@H](C(=O)N[C@@H](Cc1ccccc1)C(=O)N[C@@H](CCCNC(=N)N)C(=O)N[C@@H](CCCCN)C(=O)N[C@@H](CCCCN)C(=O)N[C@@H](CC(C)C)C(=O)N[C@@H](CCCNC(=N)N)C(=O)N[C@@H](CCCCN)C(=O)N[C@@H](CCCCN)C(=O)N[C@@H](CS)C(=O)N[C@@H](CO)C(=O)N[C@@H](CCCCN)C(=O)NCC(=O)N[C@@H](CC(C)C)C(=O)N[C@H](C(=O)N[C@@H](CCCNC(=N)N)C(=O)N[C@@H](CCCNC(=N)N)C(=O)N[C@@H](CC(N)=O)C(=O)N[C@@H](CCSC)C(=O)O)C(C)C)[C@@H](C)O [scrCaaX‐1] (H-ITFRKKLRKKCSKGLVRRNM-OH),,lack of catalytic conversion
